Like-named read-outs stand apart in the source and are kept apart here.
What was measured:
Bcl-xL protein = biological target: T1, Bcl-xL protein (Homo sapiens, UniProt Q07817); assay: Degradation experiment of Bcl-xL target protein (Western blot in Molt-4 cells); format: cell-based; conditions: 100 nM, 0, 2, 6, 16 h, GAPDH internal control, Figure 4
T1 construct: host or cells: Molt-4 cells
Method: Actively growing and healthy Molt-4 cells were subcultured into a fresh RPMI-1640 medium containing 10% fetal bovine serum, and each PROTAC molecule was added thereto at a final concentration of 100 nM. After drug treatment for the specified times (0, 2, 6, and 16 hours), the cells were collected, the supernatant was discarded by centrifugation, and the cells were washed twice with pre-cooled PBS buffer. Total protein was extracted with a lysis buffer (Servicebio, G2002-100ML), and the protein concentration was normalized by using a BCA protein quantification kit (Servicebio, G2026). Protein samples were mixed with a protein-loading buffer and incubated at 95°C for 5 minutes. Western blotting experiments were performed by using the following antibodies: Bcl-xL (Abcam, catalog number ab32370), diluted at 1:500; GAPDH antibody (Servicebio, catalog number GB15004), diluted at 1:1000; and horseradish peroxidase-conjugated goat anti-rabbit secondary antibody (Servicebio, catalog number GB23303), diluted at 1:5000.

Molt-4 cells [1] = assay: Molt-4 cell killing activity test (CCK-8); format: cell-based; conditions: for EC50: Homo sapiens; for killing Molt-4 cells at different concentrations (Figure 1), in words: 0.001-3 µM, comparison with control molecules
Method: (§1) Molt-4 cells were cultured and amplified in 10 cm dishes by using RPMI-1640 medium supplemented with 10% fetal bovine serum. Actively growing and healthy Molt-4 cells were collected, centrifuged at 1000 rpm for 5 minutes, and after removing the supernatant, the cells were resuspended in fresh RPMI-1640 medium containing 10% fetal bovine serum. Cell counting was then performed. The cell density was adjusted to 120,000 cells per milliliter, and 100 µL of the cell suspension was added to each well of a 96-well transparent cell culture plate. It was noted that the edge wells of the 96-well plate were not used for testing; and 300 µL of PBS alone was added to these wells to reduce medium evaporation.
The small molecule compounds to be tested for activity were prepared. A series of small molecule concentration gradients (0.001, 0.003, 0.01, 0.03, 0.1, 0.3, 1, and 3 µM) were pre-set, and a series of 2× drug dilutions for the above concentrations were prepared in RPMI-1640 medium containing 10% fetal bovine serum. 100 µL of the above medium containing the gradient concentrations of the drug was added to each well of a 96-well plate pre-seeded with cells, so that the final drug concentration in each well was the pre-set concentration gradient. Three replicate wells were used for each tested drug concentration. The 96-well plate was placed back in a 37°C incubator, and the cell viability was measured after three days.
The plate was taken out three days after adding the drugs, and 100 µL of pre-prepared CCK-8 working solution was added to each well. The CCK-8 working solution was obtained through diluting a CCK-8 stock solution (C0041, Beyotime) by 10-fold volumn with a serum-free RPMI-1640 medium. The 96-well plates with the added CCK-8 working solution were placed back in the 37°C incubator and incubated for 0.5-2 hours. The plates were then taken out, and the absorbance value (OD value) of each well was measured at a wavelength of 450 nm, and the cell viability in each experimental group was calculated according to the following formula: Relative cell viability (%) = […] × 100%.

Molt-4 cells [2] = assay: Detection of E3 enzyme-dependence: Molt-4 cell killing with or without pomalidomide (CCK-8); format: cell-based; conditions: 10 µM pomalidomide, Figure 2
Method: as §1, with “Actively” for “Molt-4 cells were cultured and amplified in 10 cm dishes by using RPMI-1640 medium supplemented with 10% fetal bovine serum. Actively”, “testing,” for “testing;”
Molt-4 cells were plated in duplicate according to the number of the tested small molecules, so as to test the effects with and without the addition of pomalidomide (a competitive ligand specific for E3 ligase), in which one half of the parallel cells was added 10 µM pomalidomide. A series of small molecule concentration gradients (0.001, 0.003, 0.01, 0.03, 0.1, 0.3, 1, and 3 µM) were pre-set, and a series of 2× drug dilutions for the above concentrated were prepared in DMEM medium containing 10% fetal bovine serum. 100 µL of the above DMEM medium containing the gradient concentrations of the drug was added to 96-well plates that have been pre-plated with cells, so that the final drug concentration in each well was the pre-set series of concentrations respectively. Three replicate wells were used for each test drug concentration. The 96-well plates were placed back in a 37°C incubator, and the cell viability was detected after three days.
Cell viability after drug treatment was detected by using the CCK-8 method: three days after adding the drugs, the plates were taken out, and the supernatant was discarded. Then, 100 µL of pre-prepared CCK-8 working solution was added to each well. The CCK-8 working solution was obtained through diluting a CCK-8 stock solution (C0041, Beyotime) by 10-fold volumn with a serum-free DMEM culture medium. The 96-well plates with the added CCK-8 working solution were placed back in the 37°C incubator and incubated for 0.5-2 hours. The plates were then taken out, and the absorbance value (OD value) of each well was measured at a wavelength of 450 nm. The cell viability in each experimental group was calculated according to the following formula: Relative cell viability (%) = (Blank control group - Experimental group) / Blank control group × 100%.

HEF cells = assay: Senescent cell killing activity test, HEF cell model (CCK-8); format: cell-based, human
Method: To avoid replication of the induced senescent cells, low-passage proliferating HEF cells (<10 passages), MRC5 cells (<6 passages), and BJ cells (<10 passages) were used as normal controls. For chemical drug induced senescence, HEF cells were treated with 10 µM etoposide (Selleck, S1225) for 36-48 hours, MRC5 cells were treated with 5 µM bleomycin (Selleck, S1225) for 72 hours, and BJ cells were treated with 10 µg/mL bleomycin for 72 hours. Three days after the treatment, the cells were subcultured in fresh culture medium at a 1:3 ratio for 72 hours before further analysis and use.
Non-senescent and induced-senescent HEF cells, non-senescent and induced-senescent MRC5 cells, and non-senescent and induced-senescent BJ cells were respectively digested with trypsin, and centrifuged at 1000 rpm for 5 minutes. Then, the supernatant was removed, and the cells were resuspended in fresh DMEM culture medium containing 10% fetal bovine serum for counting. The cell density was adjusted so that the non-senescent cell density was 4000 cells/100 µL and the senescent cell density was 7000 cells/100 µL. 100 µL of the cell suspension was added to each well of a 96-well transparent cell culture plate. It was noted that the edge wells of the 96-well plate were not used as testing wells, and 300 µL of PBS alone was added to these wells to reduce evaporation of the culture medium. The 96-well plates with the well-plated cells were placed back in a 37°C incubator for overnight culture until the cells adhered. On the next day, the small molecule compounds to be tested were prepared and added after the cells had adhered.
A series of small molecule concentration gradients (0.01, 0.03, 0.1, 0.3, 1, 3, 10, and 25 µM) were pre-set, and a series of 2× drug dilutions for the above concentrations were prepared in DMEM culture medium containing 10% fetal bovine serum. 100 µL of the above DMEM culture medium containing the gradient concentrations of the drug was added to each well of the 96-well plate that had been well-plated with cells, so that the final drug concentration in each well was the pre-set series of concentrations. Three replicate wells were used for each test drug concentration. The 96-well plates were placed back in a 37°C incubator, and cell viability was measured after three days.
Three days after adding the drug, the plates were taken out, and the supernatant was discarded. 100 µL of pre-prepared CCK-8 working solution was added to each well. The CCK-8 working solution was obtained through diluting a CCK-8 stock solution (C0041, Beyotime) with a serum-free DMEM culture medium by 10-fold volumn. The 96-well plates containing the CCK-8 working solution were placed back in the 37°C incubator and incubated for 0.5-2 hours. The plates were then taken out, and the absorbance value (OD value) of each well was measured at a wavelength of 450 nm. The cell viability in each experimental group was calculated according to the following formula: Relative cell viability (%) = (Blank control group - Experimental group) / Blank control group × 100%.

[3] = 72 h, Molt-4 cells, three days, CCK-8, read-out: EC50 (Molt-4)
[4] = Bcl-xL-positive Molt-4 cells, read-out: cellular activity / killing activity (Molt-4 cells)

T1 sequence (Q07817 whole entry): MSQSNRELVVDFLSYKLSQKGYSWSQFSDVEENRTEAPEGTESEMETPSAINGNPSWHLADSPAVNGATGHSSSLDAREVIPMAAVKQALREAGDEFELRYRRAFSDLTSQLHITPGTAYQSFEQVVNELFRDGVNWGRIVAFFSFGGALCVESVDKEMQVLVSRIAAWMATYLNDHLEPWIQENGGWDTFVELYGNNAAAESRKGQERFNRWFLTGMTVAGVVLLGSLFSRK

Row | Compound | degradation of the Bcl-xL protein (Bcl-xL protein) | EC50 (Molt-4 cells [1]; [3]) [nM] | EC50 (Molt-4 cells [1]; [4]) [nM] | cell killing activity after addition of pomalidomide (+poma) compared to without (-poma) (Molt-4 cells [2]) | killing Molt-4 cells at different concentrations (Figure 1), in words (Molt-4 cells [1]) | killing senescent HEF cells (HEF cells; etoposide-induced senescent vs normal HEF cells, Figures 3A-3F) | toxicity on normal non-senescent HEF cells (HEF cells; higher concentration (25 µM))
1 | Cc1cc([C@H](C(=O)N2C[C@H](O)C[C@H]2C(=O)N[C@@H](CC(=O)N2CCC(CN3CCN(CC#Cc4ccc(OCCCc5ccc(N6CCc7cccc(C(=O)Nc8nc9ccccc9s8)c7C6)nc5C(=O)O)c(F)c4)CC3)CC2)c2ccc(-c3scnc3C)cc2)C(C)C)on1 [APH7] | had the ability to degrade the Bcl-xL protein | 10 to 100 | – | – | – | – | –
2 | Cc1cc([C@H](C(=O)N2C[C@H](O)C[C@H]2C(=O)N[C@@H](CC(=O)N2CCC(CCN3CCN(CC#Cc4ccc(OCCCc5ccc(N6CCc7cccc(C(=O)Nc8nc9ccccc9s8)c7C6)nc5C(=O)O)c(F)c4)CC3)CC2)c2ccc(Cl)cc2)C(C)C)on1 [APH105] | had the ability to degrade the Bcl-xL protein | < 10 | < 10 | – | – | – | –
3 | CC(C)(C)[C@H](NC(=O)C1(F)CC1)C(=O)N1C[C@H](O)C[C@H]1C(=O)N[C@@H](CC(=O)N1CCC(CCN2CCN(CC#Cc3ccc(OCCCc4ccc(N5CCc6cccc(C(=O)Nc7nc8ccccc8s7)c6C5)nc4C(=O)O)c(F)c3)CC2)CC1)c1ccc(Cl)cc1 [APH106] | had the ability to degrade the Bcl-xL protein | 10 to 100 | – | – | – | – | –
4 | CS(=O)(=O)NC(=O)c1nc(N2CCc3cccc(C(=O)Nc4nc5ccccc5s4)c3C2)ccc1CCCOc1ccc(C#CCN2CCN(CC3CCN(c4ccc(N5CCC(=O)NC5=O)cc4)CC3)CC2)cc1F [APQ10-2] | had the ability to degrade the Bcl-xL protein | < 10 | < 10 | significantly reduced cell killing activity | comparable to A-1331852 | – | –
5 | O=C1CCN(c2cc(F)c(N3CCN(CC#Cc4ccc(OCCCc5ccc(N6CCc7cccc(C(=O)Nc8nc9ccccc9s8)c7C6)nc5C(=O)O)c(F)c4)CC3)cc2F)C(=O)N1 [APQ904] | had the ability to degrade the Bcl-xL protein | < 10 | < 10 | significantly reduced cell killing activity | comparable to A-1331852 | – | –
6 | O=C1CCC(N2C(=O)c3cccc(NCCOCCOCCOCCOCCN4CCN(CC#Cc5ccc(OCCCc6ccc(N7CCc8cccc(C(=O)Nc9nc%10ccccc%10s9)c8C7)nc6C(=O)O)c(F)c5)CC4)c3C2=O)C(=O)N1 (stereo not shown) [BF4] | had the ability to degrade the Bcl-xL protein | 10 to 100 | – | significantly reduced cell killing activity | – | efficiently and selectively kill senescent HEF cells | no toxicity on normal non-senescent HEF cells
